# Patent US4948782A, “A method of promoting the growth of domestic animals with erythromycin derivative containing composition” (Kitasato Kenkyusho, priority 1987, dated 1990)
# Like-named read-outs stand apart in the source and are kept apart here.
# Experiments:
# cockerels of broilers = experiment: Survival rate and growing rate of cockerels of broilers fed the compound in rye-rations for 14 days; assay type: in vivo, cockerels of broilers (Habbard); details: for Gain (Ratio): control = 100.0; for Gain: mean
# Protocol: The feeds prepared by adding 0, 1.0, 10.0 and 100.0 ppm of 8,9-anhydroerythromycin A 6,9-hemiketal propargyl chloride respectively to rye-rations, were given to 160 cockerels of broilers (Habbard) of day zero, as 10 cockerels/group×4 repeats/ section, and allowed to be taken freely and continuously for 14 days. The cockerels were positioned to be accommodated for each groups by the Latin square method in an electrically heated battery brooder (the inside thereof is heated at a temperature of 32° C.). The survival rate and the growing rate were measured at 7 and 14 days of age.
# Experimental Example 2 was repeated except for changing the administration compound to ethyl-nor-8,9-anhydroerythromycin A 6,9-hemiketal. The result of measuring the survival rate and the growing rate in cockerals of broilers (Habbard) of day zero was shown in Table 8.
# Clostridium perfringens = assay type: in vivo
# [1] = tested on: Staphylococcus aureus ATCC 6538P; experiment: MIC, Staphylococcus aureus ATCC 6538P (SA(1)); assay type: cell-based; details: Staphylococcus aureus, ATCC6538P, Staphylococcus aureus ATCC 6538P; read-out: MIC SA (1)
# Text: (§1) The minimum inhibitory concentrations (MIC: mcg/ml) of the erythromycin derivatives of the present invention and the control erythromycin derivative (*) as the known growth promoting agent on typical test bacteria are shown in the following Tables 1 to 5.
# SA(1): Staphylococcus aureus ATCC 6538P
# [2] = tested on: Staphylococcus aureus FDA 209P; experiment: MIC, Staphylococcus aureus FDA 209P (SA(2)); assay type: cell-based; details: Staphylococcus aureus, FDA209P, Staphylococcus aureus FDA 209P; read-out: MIC SA (2)
# Text: as §1
# SA(2): Staphylococcus aureus FDA 209P
# Bacillus subtilis = experiment: MIC, Bacillus subtilis (BS); assay type: cell-based; details: read-out: MIC BS
# Bacillus cereus IFO 3001 = experiment: MIC, Bacillus cereus IFO 3001 (BC); assay type: cell-based; details: Bacillus cereus, IFO3001, Bacillus cereus IFO 3001; read-out: MIC BC
# Escherichia coli NIHJ = experiment: MIC, Escherichia coli NIHJ (EC); assay type: cell-based
# [3] = tested on: Klebsiella pneumoniae ATCC 10031; experiment: MIC, Klebsiella pneumoniae ATCC 10031 (KP); assay type: cell-based; details: ATCC10031; Klebsiella pneumoniae ATCC 10031; read-out: MIC KP
compound,measurement,setting,value
"C#CC[N+](C)(C)[C@H]1C[C@@H](C)O[C@@H](O[C@@H]2[C@@H](C)[C@H](O[C@H]3C[C@@](C)(OC)[C@@H](O)[C@H](C)O3)[C@@H](C)C(=O)O[C@H](CC)[C@@](C)(O)[C@H](O)[C@@H](C)C3=C(C)C[C@@]2(C)O3)[C@@H]1O [8,9-anhydroerythromycin A 6,9-hemiketal propargyl chloride]",Survival rate,"cockerels of broilers; 1.0 ppm in feed, 0-7 days",97.5%
same,Gain (Ratio),"cockerels of broilers; 1.0 ppm in feed, 0-7 days",105.7
same,Gain,"cockerels of broilers; 1.0 ppm in feed, 0-7 days",84.1 g/cockerel
same,Survival rate,"cockerels of broilers; 1.0 ppm in feed, 0-14 days",97.5%
same,Gain (Ratio),"cockerels of broilers; 1.0 ppm in feed, 0-14 days",105.3
same,Gain,"cockerels of broilers; 1.0 ppm in feed, 0-14 days",258.2 g/cockerel
same,Survival rate,"cockerels of broilers; 10.0 ppm in feed, 0-7 days",100.0%
same,Gain (Ratio),"cockerels of broilers; 10.0 ppm in feed, 0-7 days",105.0
same,Gain,"cockerels of broilers; 10.0 ppm in feed, 0-7 days",83.5 g/cockerel
same,Survival rate,"cockerels of broilers; 10.0 ppm in feed, 0-14 days",100.0%
same,Gain (Ratio),"cockerels of broilers; 10.0 ppm in feed, 0-14 days",103.7
same,Gain,"cockerels of broilers; 10.0 ppm in feed, 0-14 days",254.3 g/cockerel
same,Survival rate,"cockerels of broilers; 100.0 ppm in feed, 0-7 days",100.0%
same,Gain (Ratio),"cockerels of broilers; 100.0 ppm in feed, 0-7 days",111.4
same,Gain,"cockerels of broilers; 100.0 ppm in feed, 0-7 days",88.6 g/cockerel
same,Survival rate,"cockerels of broilers; 100.0 ppm in feed, 0-14 days",100.0%
same,Gain (Ratio),"cockerels of broilers; 100.0 ppm in feed, 0-14 days",107.4
same,Gain,"cockerels of broilers; 100.0 ppm in feed, 0-14 days",263.3 g/cockerel
same,Number of Cl. perfringens,"Clostridium perfringens; 1.0 ppm (section 2), day 0",2.0 log CFU/g
same,Number of Cl. perfringens,"Clostridium perfringens; 1.0 ppm (section 2), day 7",6.1 log CFU/g
same,Number of Cl. perfringens,"Clostridium perfringens; 10.0 ppm (section 3), day 0",2.0 log CFU/g
same,Number of Cl. perfringens,"Clostridium perfringens; 10.0 ppm (section 3), day 7",4.9 log CFU/g
same,Number of Cl. perfringens,"Clostridium perfringens; 100.0 ppm (section 4), day 0",2.0 log CFU/g
same,Number of Cl. perfringens,"Clostridium perfringens; 100.0 ppm (section 4), day 7",6.2 log CFU/g
CC[C@H]1OC(=O)[C@H](C)[C@@H](O[C@H]2C[C@@](C)(OC)[C@@H](OC=O)[C@H](C)O2)[C@H](C)[C@@H](O[C@@H]2O[C@H](C)C[C@H]([N+](C)(C)CC)[C@H]2O)[C@@]2(C)CC(C)=C(O2)[C@H](C)[C@@H](O)[C@]1(C)O [Compound 59],MIC,[1],> 100 µg/mL
same,MIC,[2],> 100 µg/mL
same,MIC,Bacillus subtilis,> 100 µg/mL
same,MIC,Bacillus cereus IFO 3001,> 100 µg/mL
same,MIC,Escherichia coli NIHJ,> 100 µg/mL
same,MIC,[3],> 100 µg/mL
CC[C@H]1OC(=O)[C@H](C)[C@@H](O[C@H]2C[C@@](C)(OC)[C@@H](O)[C@H](C)O2)[C@H](C)[C@@H](O[C@@H]2O[C@H](C)C[C@H]([N+](C)(C)CC)[C@H]2O)[C@@]2(C)CC(C)=C(O2)[C@H](C)[C@@H](O)[C@]1(C)O [Compound 61],MIC,[1],> 100 µg/mL
same,MIC,[2],> 100 µg/mL
same,MIC,Bacillus subtilis,> 100 µg/mL
same,MIC,Bacillus cereus IFO 3001,> 100 µg/mL
same,MIC,Escherichia coli NIHJ,> 100 µg/mL
same,MIC,[3],> 100 µg/mL
CC[C@H]1OC(=O)[C@H](C)[C@@H](O[C@H]2C[C@@](C)(OC)[C@@H](O)[C@H](C)O2)[C@H](C)[C@@H](O[C@@H]2O[C@H](C)C[C@H]([N+](C)(C)CC)[C@H]2O)[C@@]2(C)CC(C)C3(O[C@@]1(C)[C@H](O)[C@H]3C)O2 (stereo partly drawn) [Compound 71],MIC,[1],> 100 µg/mL
same,MIC,[2],> 100 µg/mL
same,MIC,Bacillus subtilis,100 µg/mL
same,MIC,Bacillus cereus IFO 3001,100 µg/mL
same,MIC,Escherichia coli NIHJ,> 100 µg/mL
same,MIC,[3],> 100 µg/mL
C#CCNC1CC(C)OC(OC2C(C)C(OC3CC(C)(OC)C(O)C(C)O3)C(C)C(=O)OC(CC)C(C)(O)C(O)C(C)C3=C(C)CC2(C)O3)C1O (stereo not drawn) [Compound 41],MIC,[1],> 100 µg/mL
same,MIC,[2],> 100 µg/mL
same,MIC,Bacillus subtilis,> 100 µg/mL
same,MIC,Bacillus cereus IFO 3001,> 100 µg/mL
same,MIC,Escherichia coli NIHJ,> 100 µg/mL
same,MIC,[3],> 100 µg/mL
CCC[N+](C)(C)[C@H]1C[C@@H](C)O[C@@H](O[C@@H]2[C@@H](C)[C@H](O[C@H]3C[C@@](C)(OC)[C@@H](O)[C@H](C)O3)[C@@H](C)C(=O)O[C@H](CC)[C@@](C)(O)[C@H](O)[C@@H](C)C3O[C@]2(C)CC3C)[C@@H]1O (stereo partly drawn) [Compound 64],MIC,[1],> 100 µg/mL
same,MIC,[2],> 100 µg/mL
same,MIC,Bacillus subtilis,> 100 µg/mL
same,MIC,Bacillus cereus IFO 3001,> 100 µg/mL
same,MIC,Escherichia coli NIHJ,> 100 µg/mL
same,MIC,[3],> 100 µg/mL
CCC1OC(=O)C(C)C(OC2CC(C)(OC)C(O)C(C)O2)C(C)C(OC2OC(C)CC([N+](C)(C)C)C2O)C2(C)CC(C)=C(O2)C(C)C(O)C1(C)O (stereo not drawn) [Compound 1],MIC,[1],> 100 µg/mL
same,MIC,[2],> 100 µg/mL
same,MIC,Bacillus subtilis,> 100 µg/mL
same,MIC,Bacillus cereus IFO 3001,> 100 µg/mL
same,MIC,Escherichia coli NIHJ,> 100 µg/mL
same,MIC,[3],> 100 µg/mL
C=CC[N+](C)(C)[C@H]1C[C@@H](C)O[C@@H](O[C@@H]2[C@@H](C)[C@H](O[C@H]3C[C@@](C)(OC)[C@@H](O)[C@H](C)O3)[C@@H](C)C(=O)O[C@H](CC)[C@@](C)(O)[C@H](O)[C@@H](C)C3O[C@]2(C)CC3C)[C@@H]1O (stereo partly drawn) [Compound 66],MIC,[1],100 µg/mL
same,MIC,[2],100 µg/mL
same,MIC,Bacillus subtilis,100 µg/mL
same,MIC,Bacillus cereus IFO 3001,100 µg/mL
same,MIC,Escherichia coli NIHJ,> 100 µg/mL
same,MIC,[3],> 100 µg/mL
CC[C@H]1OC(=O)[C@H](C)[C@@H](O[C@H]2C[C@@](C)(OC)[C@@H](O)[C@H](C)O2)[C@H](C)[C@@H](O[C@@H]2O[C@H](C)C[C@H]([N+](C)(C)CC)[C@H]2O)[C@@]2(C)CC(C)=C(O2)[C@H](C)[C@@H](O)C1C (stereo partly drawn) [Compound 74],MIC,[1],100 µg/mL
same,MIC,[2],100 µg/mL
same,MIC,Bacillus subtilis,> 100 µg/mL
same,MIC,Bacillus cereus IFO 3001,100 µg/mL
same,MIC,Escherichia coli NIHJ,> 100 µg/mL
same,MIC,[3],> 100 µg/mL
